In patent US11299485B2, “Thiophene derivative and use thereof” (FUJIMOTO CO., LTD., priority 2018, dated 2022):

Tests used:
Format in all cases: cell-based
TNF-α production = experiment: Human TNF-α production suppression test (LPS-stimulated peripheral blood mononuclear cells, ELISA); details: PBMC, compound 10 μg/mL, 24 hr, control well = 100, read-out: TNF-α production suppressive rate (%)
Procedure: Example 50: Human TNF-α Production Suppression Test
Peripheral blood of a healthy adult was collected in a vacuum blood collection tube (Terumo, containing EDTA/2Na), and then diluted two-fold with an equal volume of OTSUKA NORMAL SALINE (Otsuka Pharmaceutical Co., Ltd.). The diluted blood was mixed with Lymphoprep (AXIS-SHIELD) in half the volume of the diluted blood, dispensed into a 15 mL conical tube, and centrifuged at room temperature for 20 min (2,100 rpm). The mononuclear cells accumulated at the interface between Lymphoprep and plasma was transferred to a 50 mL conical tube, diluted with OTSUKA NORMAL SALINE, and the mononuclear cells suspension was centrifuged at room temperature for 10 min (1,150 rpm) and then the supernatant was removed. The mononuclear cells fraction obtained as a precipitate was suspended in an appropriate amount of 10% fetal calf serum (Thermo Fisher Scientific)-containing RPMI1640 medium (Thermo Fisher Scientific, hereinafter abbreviated as medium A), and diluted as appropriate with 0.4% trypan blue solution (Sigma-Aldrich Co. LLC.). The number of viable cells was counted with a hemocytometer (ERMA INC.). It was diluted with medium A such that the value obtained was 5×10^5 cells/mL. On the other hand, 75 μL of medium A, 5 μL of 0.4 mg/mL test compound solution (DMSO solution 10-fold diluted with medium A), and 20 μL of 10 μg/mL lipopolysaccharide (Sigma-Aldrich Co. LLC.) solution (diluted with medium A) were each added in advance to the same well of a Falcon 96-well flat bottom plate (Corning Incorporated), and the above-mentioned cell suspension was dispensed at 0.1 mL/well. 5 μL of DMSO diluted 10-fold with medium A was added to the control well instead of the compound solution. After culturing at 37° C. in a 5% CO2 stream for 24 hr, the culture solution was centrifuged at 4° C., 1,000 rpm for 3 min and the supernatant was recovered. The content of TNF-α in the supernatant was measured using an ELISA kit (Peprotech) according to a conventional method. The amount of TNF-α produced in the well containing the test compound was determined with the amount of TNF-α produced in the control well as 100, and the suppression rate was calculated for each test.

REC-1 cells = experiment: Human mantle cell lymphoma cell line REC-1 proliferation suppression test; details: Rec1, 72 h, compound 10 μM, 3 days, WST-8, read-out: cell survival rate (% of control) REC-1
Summary of the method: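 Cells were plated at 1.3×10^5 cells/mL, and the next day test compound was added at a final 10 μM, with DMSO-only medium as control. After 3 days at 37° C under 5% CO2, proliferation was measured with WST-8.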

Daudi cells = experiment: Human Burkitt lymphoma cell line Daudi proliferation suppression test; details: 72 h, compound 10 μM, 3 days, WST-8, read-out: cell survival rate (% of control) Daudi
Summary of the method: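 Daudi cells plated at 1.3×10^5 cells/mL and cultured overnight at 37° C., 5% CO2, then given test compound at final 10 μM (DMSO vehicle control). After 3 days' culture, proliferation was read by WST-8.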

Kasumi-7 cells = experiment: Human acute lymphoblastic leukemia cell line Kasumi-7 proliferation suppression test; details: 72 h, compound 10 μM, 3 days, WST-8, read-out: cell survival rate (% of control) Kasumi-7
Summary of the method: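 Cells seeded at 1.3×10^5 cells/mL in RPMI1640 with 20% FCS, cultured overnight at 37°C, 5% CO2, then treated with compound at 10 μM final; DMSO vehicle control. Proliferation read by WST-8 after 3 days' culture.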

| SMILES | inhibition at 10 µg/mL (TNF-α production) [%] | viability at 10 µM (REC-1 cells) [%] | viability at 10 µM (Daudi cells) [%] | viability at 10 µM (Kasumi-7 cells) [%] |
| --- | --- | --- | --- | --- |
| C[C@@H]1CN(Cc2ccc(COc3cscc3-c3cn(C4CCC(=O)NC4=O)nn3)cc2)C[C@H](C)O1 (stereo partly drawn) [compound 38, 3-{4-[4-(4-{[(2S,6R)-2,6-dimethylmorpholino]methyl}benzyloxy)thiophen-3-yl]-1H-1,2,3-triazol-1-yl}piperidine-2,6-dione] | 89 | 5 | 7 | 23 |
| O=C1CCC(n2cc(-c3cscc3OCc3cccc(CN4CCOCC4)c3)nn2)C(=O)N1 (stereo not drawn) [compound 39, 3-(4-{4-[3-(morpholinomethyl)benzyloxy]thiophen-3-yl}-1H-1,2,3-triazol-1-yl)piperidine-2,6-dione] | 81 | 24 | 30 | 36 |
| O=C1CCC(n2cc(-c3cscc3OCc3ccccc3CN3CCOCC3)nn2)C(=O)N1 (stereo not drawn) [compound 40, 3-(4-{4-[2-(morpholinomethyl)benzyloxy]thiophen-3-yl}-1H-1,2,3-triazol-1-yl)piperidine-2,6-dione] | 86 | 33 | 46 | 41 |
| Cl.O=C1CCC(n2cc(-c3cscc3OCc3ccc(CN4CCCC4)cc3)nn2)C(=O)N1 (stereo not drawn) [compound 41, 3-(4-{4-[4-(pyrrolidin-1-ylmethyl)benzyloxy]thiophen-3-yl}-1H-1,2,3-triazol-1-yl)piperidine-2,6-dione hydrochloride] | 93 | 20 | 24 | 26 |
| Cl.O=C1CCC(n2cc(-c3cscc3OCc3ccc(CN4CCCCC4)cc3)nn2)C(=O)N1 (stereo not drawn) [compound 42, 3-(4-{4-[4-(piperidin-1-ylmethyl)benzyloxy]thiophen-3-yl}-1H-1,2,3-triazol-1-yl)piperidine-2,6-dione hydrochloride] | 96 | 13 | 17 | 26 |
| O=C1CCC(n2cc(-c3cscc3OCc3ccc(Cl)cc3)nn2)C(=O)N1 (stereo not drawn) [compound 43, 3-{4-[4-(4-chlorobenzyloxy)thiophen-3-yl]-1H-1,2,3-triazol-1-yl}piperidine-2,6-dione] | 87 | 23 | 36 | 42 |
| CC(Oc1cscc1-c1cn(C2CCC(=O)NC2=O)nn1)c1ccccc1 (stereo not drawn) [compound 44, 3-{4-[4-(1-phenylethoxy)thiophen-3-yl]-1H-1,2,3-triazol-1-yl}piperidine-2,6-dione] | 79 | 30 | 41 | 40 |
| Cl.O=C1CCC(n2cc(-c3cscc3OCc3ccc(CCN4CCOCC4)cc3)nn2)C(=O)N1 (stereo not drawn) [compound 45, 3-(4-{4-[4-(2-morpholinoethyl)benzyloxy]thiophen-3-yl}-1H-1,2,3-triazol-1-yl)piperidine-2,6-dione hydrochloride] | 76 | 26 | 40 | 39 |
| CN(C)Cc1ccc(COc2cscc2-c2cn(C3CCC(=O)NC3=O)nn2)cc1.Cl (stereo not drawn) [compound 46, 3-[4-(4-{4-[(dimethylamino)methyl]benzyloxy}thiophen-3-yl)-1H-1,2,3-triazol-1-yl]piperidine-2,6-dione hydrochloride] | 80 | 23 | 29 | 35 |
| O=C1CCC(n2cc(-c3cscc3OCc3cc4ccccc4s3)nn2)C(=O)N1 (stereo not drawn) [compound 47, 3-{4-[4-(benzo[b]thiophen-2-ylmethoxy)thiophen-3-yl]-1H-1,2,3-triazol-1-yl}piperidine-2,6-dione] | 63 | 33 | 87 | 56 |
| O=C1CCC(n2nnc(-c3ccsc3)c2Br)C(=O)N1 (stereo not drawn) [compound 48, 3-[5-bromo-4-(thiophen-3-yl)-1H-1,2,3-triazol-1-yl]piperidine-2,6-dione] | 51 | 98 | 80 | 95 |
| COc1cscc1-c1nnn(C2CCC(=O)NC2=O)c1I (stereo not drawn) [compound 49, 3-[5-iodo-4-(4-methoxythiophen-3-yl)-1H-1,2,3-triazol-1-yl]piperidine-2,6-dione] | 79 | 24 | 42 | 56 |
